Reference: US9579314B2 (priority 2015, dated 2017)

Tests used:
Human M3 receptor = Human M3 receptor (Homo sapiens, UniProt P20309); conditions: read-out: M3 binding affinity
Human β2 adrenoceptor = Human β2 adrenoceptor (Homo sapiens, UniProt P07550); conditions: read-out: B2 binding affinity
Human β2 adrenoceptor, sequence (P07550 whole entry): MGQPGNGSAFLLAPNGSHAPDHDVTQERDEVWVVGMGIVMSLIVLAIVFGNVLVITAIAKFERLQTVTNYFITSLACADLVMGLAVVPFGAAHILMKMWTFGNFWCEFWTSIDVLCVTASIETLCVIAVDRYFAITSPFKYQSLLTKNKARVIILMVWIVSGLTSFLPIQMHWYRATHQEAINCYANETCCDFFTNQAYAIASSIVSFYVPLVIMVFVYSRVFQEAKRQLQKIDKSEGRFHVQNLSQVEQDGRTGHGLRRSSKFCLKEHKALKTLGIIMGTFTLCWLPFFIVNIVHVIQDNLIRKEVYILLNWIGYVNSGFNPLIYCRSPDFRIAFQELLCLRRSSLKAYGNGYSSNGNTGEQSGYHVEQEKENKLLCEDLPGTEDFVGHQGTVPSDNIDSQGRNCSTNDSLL

Human M3 receptor, sequence (P20309 whole entry): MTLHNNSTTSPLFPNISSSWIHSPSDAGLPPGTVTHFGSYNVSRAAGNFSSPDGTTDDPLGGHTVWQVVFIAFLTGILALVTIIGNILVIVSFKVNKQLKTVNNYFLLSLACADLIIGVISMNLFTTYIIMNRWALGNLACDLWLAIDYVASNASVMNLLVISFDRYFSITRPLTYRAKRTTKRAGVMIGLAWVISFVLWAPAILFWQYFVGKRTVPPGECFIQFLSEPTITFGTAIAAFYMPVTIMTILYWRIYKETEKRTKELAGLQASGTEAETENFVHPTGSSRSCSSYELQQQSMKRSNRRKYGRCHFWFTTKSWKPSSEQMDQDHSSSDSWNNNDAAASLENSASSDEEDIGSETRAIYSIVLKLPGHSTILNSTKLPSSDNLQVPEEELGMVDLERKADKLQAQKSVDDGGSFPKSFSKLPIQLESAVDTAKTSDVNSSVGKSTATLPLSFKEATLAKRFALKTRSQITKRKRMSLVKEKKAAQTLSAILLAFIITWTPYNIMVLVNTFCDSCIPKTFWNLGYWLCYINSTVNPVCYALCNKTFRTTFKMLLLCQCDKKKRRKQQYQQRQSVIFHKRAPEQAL

| SMILES | IC50 (Human M3 receptor) | IC50 (Human β2 adrenoceptor) |
| --- | --- | --- |
| COc1cc(C(=O)N[C@H]2C[C@H](NC(=O)COc3cccc([C@](O)(C(=O)OCC4CCN(Cc5ccccc5)CC4)c4ccccc4)c3)C2)ccc1CNC[C@H](O)c1ccc(O)c2[nH]c(=O)ccc12 [Compound 131, (S)-(1-benzylpiperidin-4-yl)methyl 2-hydroxy-2-(3-(2-(((1R,3S)-3-(4-((((R)-2-hydroxy-2-(8-hydroxy-2-oxo-1,2-dihydroquinolin-5-yl)ethyl)amino)methyl)-3-methoxybenzamido)cyclobutyl)amino)-2-oxoethoxy)phenyl)-2-phenylacetate] | 0.3 to 3 nM | < 0.3 nM |
| CCOc1cc(C(=O)NCCCOc2cccc([C@](O)(C(=O)OCC3CCN(Cc4ccccc4)CC3)c3ccccc3)c2)ccc1CNC[C@H](O)c1ccc(O)c2[nH]c(=O)ccc12 [Compound 32D, (S)-(1-benzylpiperidin-4-yl)methyl 2-(3-(3-(3-ethoxy-4-((((R)-2-hydroxy-2-(8-hydroxy-2-oxo-1,2-dihydroquinolin-5-yl)ethyl)amino)methyl)benzamido)propoxy)phenyl)-2-hydroxy-2-phenylacetate] | 0.3 to 3 nM | < 0.3 nM |
| COc1cc(C(=O)N[C@H]2C[C@H](NC(=O)COc3cccc([C@](O)(C(=O)OCC4CCN(Cc5ccccc5)CC4)c4ccccc4)c3)C2)c(Cl)cc1CNC[C@H](O)c1ccc(O)c2[nH]c(=O)ccc12 [Compound 137, (1-benzylpiperidin-4-yl)methyl (S)-2-(3-(2-(((1R,3S)-3-(2-chloro-4-((((R)-2-hydroxy-2-(8-hydroxy-2-oxo-1,2-dihydroquinolin-5-yl)ethyl)amino)methyl)-5-methoxybenzamido)cyclobutyl)amino)-2-oxoethoxy)phenyl)-2-hydroxy-2-phenylacetate] | 0.3 to 3 nM | < 0.3 nM |
| CC(C)Oc1cc(C(=O)NCCCOc2cccc([C@](O)(C(=O)OCC3CCN(Cc4ccccc4)CC3)c3ccccc3)c2)ccc1CNC[C@H](O)c1ccc(O)c2[nH]c(=O)ccc12 [Compound 32G, (S)-(1-benzylpiperidin-4-yl)methyl 2-hydroxy-2-(3-(3-(4-((((R)-2-hydroxy-2-(8-hydroxy-2-oxo-1,2-dihydroquinolin-5-yl)ethyl)amino)methyl)-3-isopropoxybenzamido)propoxy)phenyl)-2-phenylacetate] | 0.3 to 3 nM | 0.3 to 3 nM |
| O=C(c1ccc(CCNC[C@H](O)c2ccc(O)c3[nH]c(=O)ccc23)cc1)N1CCN(C(=O)c2ccc(COc3cccc([C@](O)(C(=O)OCC4CCN(Cc5ccccc5)CC4)c4ccccc4)c3)cc2)CC1 [Compound 118, (1-benzylpiperidin-4-yl)methyl (S)-2-hydroxy-2-(3-((4-(4-(4-(2-(((R)-2-hydroxy-2-(8-hydroxy-2-oxo-1,2-dihydroquinolin-5-yl)ethyl)amino)ethyl)benzoyl)piperazine-1-carbonyl)benzyl)oxy)phenyl)-2-phenylacetate] | < 0.3 nM | 0.3 to 3 nM |
| O=C(COc1cccc([C@](O)(C(=O)OCC2CCN(Cc3ccccc3)CC2)c2ccccc2)c1)N[C@@H]1CCN(C(=O)c2ccc(CNC[C@H](O)c3ccc(O)c4[nH]c(=O)ccc34)cc2)C1 [Compound 68, (1-benzylpiperidin-4-yl)methyl (S)-2-hydroxy-2-(3-(2-(((R)-1-(4-((((R)-2-hydroxy-2-(8-hydroxy-2-oxo-1,2-dihydroquinolin-5-yl)ethyl)amino)methyl)benzoyl)pyrrolidin-3-yl)amino)-2-oxoethoxy)phenyl)-2-phenylacetate] | 0.3 to 3 nM | 0.3 to 3 nM |
| O=C(NCCCOc1cccc([C@](O)(C(=O)OCC2CCN(C3CCC3)CC2)c2ccccc2)c1)c1ccc(CNC[C@H](O)c2ccc(O)c3[nH]c(=O)ccc23)cc1 [Compound 161, (1-cyclobutylpiperidin-4-yl)methyl (S)-2-hydroxy-2-(3-(3-(4-((((R)-2-hydroxy-2-(8-hydroxy-2-oxo-1,2-dihydroquinolin-5-yl)ethyl)amino)methyl)benzamido)propoxy)phenyl)-2-phenylacetate] | 0.3 to 3 nM | < 0.3 nM |
| CCc1ccccc1C(O)(C(=O)OCC1CCN(Cc2ccccc2)CC1)c1cccc(OCCCCCNC[C@H](O)c2ccc(O)c3[nH]c(=O)ccc23)c1 (stereo partly drawn) [Compound 8, (1-benzylpiperidin-4-yl)methyl 2-(2-ethylphenyl)-2-hydroxy-2-(3-((5-(((R)-2-hydroxy-2-(8-hydroxy-2-oxo-1,2-dihydroquinolin-5-yl)ethyl)amino)pentyl)oxy)phenyl)acetate] | > 3 nM | 0.3 to 3 nM |
| O=C(COc1cccc([C@](O)(C(=O)OCC2CCN(Cc3ccccc3)CC2)c2ccccc2)c1)N[C@H]1C[C@H](NC(=O)c2ccc(CNC[C@H](O)c3ccc(O)c4[nH]c(=O)ccc34)cc2F)C1 [Compound 128, (S)-(1-benzylpiperidin-4-yl)methyl 2-(3-(2-(((1R,3S)-3-(2-fluoro-4-((((R)-2-hydroxy-2-(8-hydroxy-2-oxo-1,2-dihydroquinolin-5-yl)ethyl)amino)methyl)benzamido)cyclobutyl)amino)-2-oxoethoxy)phenyl)-2-hydroxy-2-phenylacetate] | 0.3 to 3 nM | < 0.3 nM |
| O=C(OCC1CCN(Cc2ccccc2)CC1)C(O)(c1ccccc1)c1cccc(OCCCCCNC[C@H](O)c2ccc(O)c3[nH]c(=O)ccc23)c1 (stereo partly drawn) [Compound 1, (1-Benzylpiperidin-4-yl)methyl 2-hydroxy-2-(3-((5-(((R)-2-hydroxy-2-(8-hydroxy-2-oxo-1,2-dihydroquinolin-5-yl)ethyl)amino)pentyl)oxy)phenyl)-2-phenylacetate] | 0.3 to 3 nM | < 0.3 nM |
| O=C(NCCCOc1cccc([C@](O)(C(=O)OCC2CCN(Cc3ccccc3)CC2)c2ccccc2)c1)c1ccc(CNC[C@H](O)c2ccc(O)c3[nH]c(=O)ccc23)cn1 [Compound 32K, (S)-(1-benzylpiperidin-4-yl)methyl 2-hydroxy-2-(3-(3-(5-((((R)-2-hydroxy-2-(8-hydroxy-2-oxo-1,2-dihydroquinolin-5-yl)ethyl)amino)methyl)picolinamido)propoxy)phenyl)-2-phenylacetate] | 0.3 to 3 nM | < 0.3 nM |
| O=C(NCCCOc1cccc([C@](O)(C(=O)OCC2CCN(Cc3ccccc3)CC2)c2ccccc2)c1)c1ccc(CNC[C@H](O)c2ccc(O)c3[nH]c(=O)ccc23)nc1 [Compound 32C, (S)-(1-benzylpiperidin-4-yl)methyl 2-hydroxy-2-(3-(3-(6-((((R)-2-hydroxy-2-(8-hydroxy-2-oxo-1,2-dihydroquinolin-5-yl)ethyl)amino)methyl)nicotinamido)propoxy)phenyl)-2-phenylacetate] | 0.3 to 3 nM | < 0.3 nM |
| COc1cc(C(=O)NCCCOc2cccc([C@](O)(C(=O)OCC3CCN(Cc4ccccc4)CC3)c3ccccc3)c2)c(F)cc1CNC[C@H](O)c1ccc(O)c2[nH]c(=O)ccc12 [Compound 32I, (S)-(1-benzylpiperidin-4-yl)methyl 2-(3-(3-(2-fluoro-4-((((R)-2-hydroxy-2-(8-hydroxy-2-oxo-1,2-dihydroquinolin-5-yl)ethyl)amino)methyl)-5-methoxybenzamido)propoxy)phenyl)-2-hydroxy-2-phenylacetate] | < 0.3 nM | < 0.3 nM |
